{"source": "patent US4119784A", "about": "“Anionic substituted sulfonamido biphenyls” (American Cyanamid Company, priority 1977, dated 1978)", "assay_type_in_all_cases": "biochemical", "key": {"[1]": {"system": "late components of human complement (C3-C9)", "test": "Test, Code 035 (C3-C9 inhibitor)", "parameters": "key: N = Negative", "details": "protection of EAC 142 from lysis by human C3-C9; two-fold serial dilution assay", "from_the_text": "(§1) An active inhibitor protects C2 from C1 and C4; (ii) Test, Code 035 (C3-C9 inhibitor)--This test determines the ability of the late components of human complement (C3-C9) to lyse EAC 142 in the presence of appropriate dilutions of the test compound. An active inhibitor protects EAC 142 from lysis by human C3-C9; (iii) Test, Code 036 (C-Shunt inhibitor)--In this test human erythrocytes rendered fragile are lysed in autologous serum via the shunt pathway activated by cobra venom factor in the presence of appropriate dilutions of the test compound. Inhibition of the shunt pathway results in failure of lysis; (iv) Forssman Vasculitis Test--Here, the well known complement dependent lesion, Forssman vasculitis, is produced in guinea pigs by intradermal injection of rabbit anti-Forssman antiserum. […]"}, "activated human C1": {"system": "activated human C1", "test": "Test, Code 026 (C1 inhibitor)", "details": "activity in wells of a two-fold serial dilution assay; higher well number indicates higher activity", "from_the_text": "as §1"}, "[2]": {"system": "shunt pathway activated by cobra venom factor", "test": "Test, Code 036 (C-Shunt inhibitor)", "details": "human erythrocytes in autologous serum; two-fold serial dilution assay; higher well number indicates higher activity", "from_the_text": "as §1"}}, "note": "Where a name gives a salt, the structure may show the parent alone."}
{"smiles": "O=C(O)c1cc(NS(=O)(=O)c2ccc(-c3ccc(S(=O)(=O)Nc4cc(C(=O)O)cc(C(=O)O)c4)cc3S(=O)(=O)Nc3cc(C(=O)O)cc(C(=O)O)c3)c(S(=O)(=O)Nc3cc(C(=O)O)cc(C(=O)O)c3)c2)cc(C(=O)O)c1", "note": "[5,5',5\",5'\"-[2,2',4,4'-Biphenyltetrayltetrakis(sulfonylimino)[tetraisophthalic acid octasodium salt]", "values": [{"measurement": "C-Late 035 Wells", "setting": "[1]", "value": "N"}, {"measurement": "Cl 026 Wells", "setting": "activated human C1", "value": "+7 Wells"}, {"measurement": "Shunt Inhibition 036 Wells", "setting": "[2]", "value": "+3 Wells"}]}
